We go through 19 compounds from patent US20140349989A1, “COMPOUNDS AND THERAPEUTIC USES THEREOF” (Alzheimer's Institute of America, priority 2011, published 2014).

SMILES strings stand for the structures.

The first series can be described thus: Cytotoxicity Assay (HCT116, CellTiter-Glo). The format is cell-based. To be noted: human, HCT116 cell cytotoxicity IC50. In outline:
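Cells settled overnight, then exposed to compound in DMSO for 72 h, optionally with nicotinic acid (10 μM final) added alongside. Viability read as CellTiter-Glo luminescence.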
A general note: Cellular ATP, detected with luciferase, serves as a proxy for viable cell number.
For `O=C(NCCCCCCc1c[nH]c2ccccc12)NCc1cccnc1` [Compound 89, 1-[6-(1H-Indol-3-yl)hexyl]-3-(pyridin-3-ylmethyl)urea], the IC50 (in general, the concentration at which inhibition is half-maximal) at 72 h is at least 0.1 µM.
Compound `CC(C)(C)OC(=O)N1CC(N2CC(CCCCCCNC(=O)NCc3cccnc3)c3ccccc32)C1` (stereo not shown) [Compound 121, tert-Butyl 3-[3-(6-{[(pyridin-3-yl-methyl)carbamoyl]amino}hexyl)-2,3-dihydro-1H-indol-1-yl]azetidine-1-carboxylate] yielded an IC50 at 72 h below 0.1 µM.
Still for that read-out and setting: the result for `CC(C)(C)OC(=O)N1CCC(n2cc(C#CCCCNC(=O)NCc3cccnc3)c3ccccc32)CC1` [Compound 41, tert-Butyl 4-[3-(5-{[(pyridin-3-ylmethyl)carbamoyl]ami-no}pent-1-yn-1-yl)-1H-indol-1-yl]piperidine-1-carboxylate] reads at least 0.1 µM; that for `O=C(NCc1cccnc1)Nc1ccc(N2CC3(CCN(C4CCOCC4)CC3)c3ccccc32)nc1` [Compound 130], below 0.1 µM; that for `O=C(NCc1cccnc1)Nc1ccc(-n2cc(CCN3CCCCC3)c3ccccc32)cc1` [Compound 49, 1-(4-{3-[2-(Piperidin-1-yl)ethyl]-1H-indol-1-yl}phenyl)-3-(pyridin-3-ylmethyl)urea], below 0.1 µM.
In turn, `O=C(NCc1cccnc1)Nc1ccc(-n2cc(C3CCN(CCO)CC3)c3ccccc32)cc1` [Compound 129, 1-(4-{3-[1-(2-Hydroxy-ethyl)piperidin-4-yl]-1H-indol-1-yl}phenyl)-3-(pyridin-3-ylmethyl)urea] registered an IC50 at 72 h of at least 0.1 µM.

Staying with this series, now noted: human, HCT116 cells, 72 hours drug incubation, CellTiter-Glo luminescence; read-out: HCT116 cell cytotoxicity IC50.
With `O=C(NCc1cccnc1)Nc1ccc(-n2cc(C(=O)N3CCC(N4CCC(F)(F)CC4)CC3)c3ccccc32)c(Cl)c1` [Compound 107, 1-(3-Chloro-4-{3-[(4,4-difluoro-1,4′-bipiperidin-1′-yl)carbonyl]-1H-indol-1-yl}phenyl)-3-(pyridin-3-ylmethyl)urea], the IC50 at 72 h was below 0.1 µM.
Still for that read-out and setting: next, `O=C(NCc1cccnc1)Nc1ccc2c(c1)c(C(=O)NCCCN1CCCCC1)cn2Cc1ccccc1` [Compound 96, 1-Benzyl-N-[3-(piperidin-1-yl)propyl]-5-{[(pyridin-3-yl-methyl)carbamoyl]amino}-1H-indole-3-carboxamide]: at least 0.1 µM; `O=C(NCc1cccnc1)Nc1ccc(-n2cc(-c3nccn3CCC3CCNCC3)c3ccccc32)cc1` [Compound 60, 1-[4-(3-{1-[2-(Piperidin-4-yl)ethyl]-1H-imidazol-2-yl}-1H-indol-1-yl)phenyl]-3-(pyridin-3-ylmethyl)urea]: at least 0.1 µM.
Same read-out and setting: the result for `O=C(NCc1cccnc1)Nc1ccc(-n2cc(C3CCN(C4COC4)CC3)c3ccccc32)cc1` [Compound 105, 1-(4-{3-[1-(Oxetan-3-yl)piperidin-4-yl]-1H-indol-1-yl}phenyl)-3-(pyridin-3-ylmethyl)urea] reads below 0.1 µM.
Regarding `O=C(/C=C/c1ccc(-n2nc(C(=O)N3CCC(N4CCCC4)CC3)c3ccccc32)cc1)NCc1cccnc1` [Compound 168, (2E)-N-(Pyridin-3-ylmethyl)-3-[4-(3-{[4-(pyrrolidin-1-yl)piperidin-1-yl]carbonyl}-1H-indazol-1-yl)phenyl]prop-2-enamide], the IC50 at 72 h is below 0.1 µM.
As to `O=C(NCc1cccnc1)Nc1ccc(-n2cc(-c3nccn3CCN3CCOCC3)c3ccccc32)cc1` [Compound 102, 1-[4-(3-{1-[2-(Morpholin-4-yl)ethyl]-1H-imidazol-2-yl}-1H-indol-1-yl)phenyl]-3-(pyridin-3-ylmethyl)urea], the IC50 at 72 h was below 0.1 µM.
On the same count and under the same terms, the result for `O=C(CCc1ccc(-n2cc(CCN3CCOCC3)c3ccccc32)cc1)NCc1cccnc1` [Compound 180, 3-(4-{3-[2-(Morpholin-4-yl)ethyl]-1H-indol-1-yl}phenyl)-N-(pyridin-3-ylmethyl)propanamide] reads below 0.1 µM.
The same measure, in the same setting: the result for `CCOC(=O)c1cn(CCCNC(=O)NCc2cccnc2)c2ccccc12` [Compound 106, Ethyl 1-(3-{[(pyridin-3-ylmethyl)carbamoyl]ami-no}propyl)-1H-indole-3-carboxylate] reads at least 0.1 µM; that for `O=C(NCc1cccnc1)Nc1ccc(-n2nc(N3CCNCC3)c3ccccc32)cc1` [Compound 98, 1-{4-[3-(Piperazin-1-yl)-1H-indazol-1-yl]phenyl}-3-(pyridin-3-ylmethyl)urea], below 0.1 µM.
Still for that read-out and setting: the result for `O=C(NCc1cccnc1)Nc1ccc(-n2cc(-c3nccn3CCN3CCCC3)c3ccccc32)cc1` [Compound 72, 1-(Pyridin-3-ylmethyl)-3-[4-(3-{1-[2-(pyrrolidin-1-yl)ethyl]-1H-imidazol-2-yl}-1H-indol-1-yl)phenyl] urea] reads below 0.1 µM.
Regarding `O=C(/C=C/c1ccc(-n2nc(C(=O)N3CCN(C4CCC4)CC3)c3ccccc32)cc1)NCc1cccnc1` [Compound 167, (2E)-3-(4-{3-[(4-Cyclobutylpiperazin-1-yl)carbonyl]-1H-indazol-1-yl}phenyl)-N-(pyridin-3-ylmethyl)prop-2-enamide], the IC50 at 72 h was below 0.1 µM.
Same read-out and setting: next, `O=C(/C=C/c1ccc(-n2cc(CCN3CCOCC3)c3ccccc32)nc1)NCc1cccnc1` [Compound 179, (2E)-3-(6-{3-[2-(Morpholin-4-yl)ethyl]-1H-indol-1-yl}pyridin-3-yl)-N-(pyridin-3-ylmethyl)prop-2-enamide]: below 0.1 µM; `O=C(NCCCCCn1cc(C(=O)N2CCN(C3CCCCC3)CC2)c2ccccc21)NCc1cccnc1` [Compound 116, 1-(5-{3-[(4-Cyclohexyl-piperazin-1-yl)carbonyl]-1H-indol-1-yl}pentyl)-3-(pyridin-3-ylmethyl)urea]: below 0.1 µM.
